For 24 molecules, IC50 and inhibition results are on record in patent publication US8822449B2, “Substituted aminoindanes and analogs thereof, and the pharmaceutical use thereof” (Sanofi, priority 2008, dated 2014).

Bounds are passed on as bounds.

The target in this assay is T1, sodium-proton exchanger of subtype 3 (NHE3) (Homo sapiens, UniProt P48764).
T1 construct: expressed in transfected cells
T1 sequence (P48764 26-834): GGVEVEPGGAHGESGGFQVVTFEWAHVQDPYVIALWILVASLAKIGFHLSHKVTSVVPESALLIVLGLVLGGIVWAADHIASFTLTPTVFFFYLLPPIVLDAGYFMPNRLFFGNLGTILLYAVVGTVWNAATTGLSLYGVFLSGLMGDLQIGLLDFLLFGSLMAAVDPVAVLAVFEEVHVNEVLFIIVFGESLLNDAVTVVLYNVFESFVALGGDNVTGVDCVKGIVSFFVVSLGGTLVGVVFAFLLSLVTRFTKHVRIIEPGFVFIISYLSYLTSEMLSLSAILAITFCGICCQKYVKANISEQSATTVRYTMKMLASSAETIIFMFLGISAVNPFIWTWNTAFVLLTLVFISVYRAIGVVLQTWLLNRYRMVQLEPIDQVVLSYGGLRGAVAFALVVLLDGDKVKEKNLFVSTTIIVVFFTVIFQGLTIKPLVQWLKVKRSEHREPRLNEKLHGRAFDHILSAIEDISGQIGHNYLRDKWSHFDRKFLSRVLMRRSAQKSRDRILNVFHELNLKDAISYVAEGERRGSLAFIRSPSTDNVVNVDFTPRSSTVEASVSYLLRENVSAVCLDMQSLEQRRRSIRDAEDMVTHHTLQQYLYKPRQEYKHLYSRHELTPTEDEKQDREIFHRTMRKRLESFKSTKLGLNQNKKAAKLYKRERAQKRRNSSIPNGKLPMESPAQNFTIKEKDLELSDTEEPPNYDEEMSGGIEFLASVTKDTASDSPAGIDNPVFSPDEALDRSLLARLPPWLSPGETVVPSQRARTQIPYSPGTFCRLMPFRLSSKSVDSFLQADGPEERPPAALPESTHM
Nature of the assay: Recovery of intracellular pH (pHi) after acidification in LAP1 cells stably expressing NHE3 (BCECF fluorescence, FLIPR). Type of assay: cell-based. The conditions noted are these: LAP1 cells stably expressing NHE3; pH recovery after acidification; range 1 is % inhibition at 10 μM; read-out: Activity range (inhibitory effect on NHE3).
As for `CC(=O)Nc1cccc(O[C@H]2c3ccccc3CC[C@@H]2N2CCC[C@@H](N)C2)c1` (racemic) [Example 676, N-{3-[rac-trans-(1,2)-2-((R)-3-aminopiperidin-1-yl)-1,2,3,4-tetrahydronaphthalen-1-yloxy]phenyl}acetamide], the IC50 lay in the range of 1 to 10 µM.

In the case of `CN(C)C1Cc2ccccc2C1Oc1ccc(S(N)(=O)=O)c(Cl)c1Cl` (racemic) [Example 356, 2,3-dichloro-4-(rac-trans-(1,2)-2-dimethylaminoindan-1-yloxy)benzenesulfonamide], the IC50 was less than 1 µM.

On to `Fc1ccc(O[C@H]2c3cc(Cl)cc(Cl)c3C[C@@H]2N2CCCC2)c2ncccc12` [Example 593, 8-((1S,2S)-4,6-dichloro-2-pyrrolidin-1-ylindan-1-yloxy)-5-fluoroquinoline], for which the inhibition at 10 µM lay within 20 to 50%.

On to `CC(=O)Nc1cccc(O[C@H]2c3cccc(C)c3C[C@@H]2N2CCCC2)c1` (racemic) [Example 653, N-[3-(rac-trans-(1,2)-4-methyl-2-pyrrolidin-1-ylindan-1-yloxy)phenyl]acetamide], for which the IC50 was 1 to 10 µM.

For the molecule `N#Cc1ccc(O[C@@H]2c3ccccc3C[C@H]2N2CCC(CN)CC2)cc1Cl` (racemic) [Example 546, 4-[rac-trans-(1,2)-2-(4-aminomethylpiperidin-1-yl)indan-1-yloxy]-2-chlorobenzonitrile], the IC50 was 1 to 10 µM.

For the molecule `N#Cc1ccc(O[C@@H]2c3ccccc3C[C@H]2N2C[C@H]3CNC[C@H]3C2)cc1Cl` (racemic) [Example 393, 2-chloro-4-[rac-trans-(1,2)-2-(hexahydropyrrolo[3,4-c]pyrrol-2-yl)indan-1-yloxy]benzonitrile], the IC50 is 1 to 10 µM.

Consider `CS(=O)(=O)c1ccc(OC2c3ccccc3CC2N2CCC[C@@H](N)C2)c(Cl)c1Cl` (mixture of isomers) [Example 31, (R)-1-[rac-trans-(1,2)-1-(2,3-dichloro-4-methanesulfonylphenoxy)indan-2-yl]piperidin-3-ylamine], for which the IC50 is less than 1 µM.

In the case of `CN1CCC2CN([C@H]3Cc4c(Cl)cc(Cl)cc4[C@@H]3Oc3ccc(S(C)(=O)=O)cc3)CC21` (single isomer, unassigned) [Example 582], the IC50 is 1 to 10 µM.

With `Cc1nnc(C)n1-c1ccc(O[C@H]2c3cc(Cl)ccc3C[C@@H]2N2CC[C@H](F)C2)c(Cl)c1` [Example 559, 4-{3-chloro-4-[trans-(1S,2S)-6-chloro-2-((S)-3-fluoropyrrolidin-1-yl)indan-1-yloxy]phenyl}-3,5-dimethyl-4H-[1,2,4]triazole], the IC50 was less than 1 µM.

Regarding `CN(C1CCNCC1)[C@@H]1Cc2ccccc2[C@H]1Oc1cccc(N2CCNCC2)c1` (racemic) [Example 629, methyl-[rac-trans-(1,2)-1-(3-piperazin-1-ylphenoxy)indan-2-yl]piperidin-4-ylamine], the IC50 lay in the range of 1 to 10 µM.

`c1ccc2c(c1)C[C@@H](N1C[C@H]3CNC[C@H]3C1)[C@@H]2Oc1ccc2ccncc2c1` (racemic) [Example 589, 7-[rac-trans-(1,2)-2-(Hexahydropyrrolo[3,4-c]pyrrol-2-yl)indan-1-yloxy]isoquinoline]: the IC50 fell in the range of 1 to 10 µM.

For `CN1CCN(S(=O)(=O)c2ccc(O[C@H]3c4cc(Cl)cc(Cl)c4C[C@@H]3N3CC[C@@H](O)C3)cc2)CC1` [Example 742, (R)-1-{trans-(1S,2S)-4,6-Dichloro-1-[4-(4-methyl-piperazine-1-sulfonyl)-phenoxy]-indan-2-yl}-pyrrolidin-3-ol], the IC50 was in the range of 1 to 10 µM.

For the molecule `CC1(C)NC(=O)N(c2ccc(O[C@H]3c4cc(Cl)cc(Cl)c4C[C@@H]3N3CC[C@@H](O)C3)c(Cl)c2)C1=O` [Example 423, 3-{3-chloro-4-[(1S,2S)-4,6-dichloro-2-((R)-3-hydroxypyrrolidin-1-yl)indan-1-yloxy]phenyl}-5,5-dimethylimidazolidine-2,4-dione], the IC50 was 1 to 10 µM.

Turning to `CC(=O)Nc1cccc(O[C@H]2c3ccccc3C[C@@H]2N2CCNCC2)c1` (racemic) [Example 639, N-[3-(rac-trans-(1,2)-2-piperazin-1-ylindan-1-yloxy)phenyl]acetamide], the inhibition at 10 µM lay in the range of 20 to 50%.

Take `O=C1CCCN1c1ccc(O[C@H]2c3cc(Cl)cc(Cl)c3C[C@@H]2N2CC[C@@H](O)C2)cc1` [Example 333, 1-{4-[trans-(1S,2S)-4,6-dichloro-2-((R)-3-hydroxypyrrolidin-1-yl)indan-1-yloxy]phenyl}pyrrolidin-2-one]: the IC50 was less than 1 µM.

Turning to `COc1cc(O[C@H]2c3ccccc3CC[C@@H]2N2CCC[C@H](N)C2)ccc1Br` (racemic) [Example 173, (S)-1-[rac-trans-(1,2)-1-(4-bromo-3-methoxyphenoxy)-1,2,3,4-tetrahydronaphthalen-2-yl]piperidin-3-ylamine], the inhibition at 10 µM fell in the range of 20 to 50%.

Consider `O=C1CNC(=O)N1c1ccc(O[C@H]2c3cc(Cl)cc(F)c3C[C@@H]2NC2CCCC2)c(F)c1` [Example 753, 3-[4-(trans-(1S,2S)-6-Chloro-2-cyclopentylamino-4-fluoro-indan-1-yloxy)-3-fluoro-phenyl]-imidazolidine-2,4-dione], for which the IC50 lay in the range of 1 to 10 µM.

For the molecule `NCC1CCN([C@@H]2Cc3ccccc3[C@H]2Oc2ccnc3ccccc23)CC1` (racemic) [Example 622, C-{1-[rac-trans-(1,2)-1-(quinolin-4-yloxy)indan-2-yl]piperidin-4-yl}methylamine], the IC50 was 1 to 10 µM.

For `COc1cc(Cl)ccc1O[C@H]1c2ccccc2CC[C@@H]1N1CCC[C@@H](N)C1` (racemic) [Example 64, (R)-1-[rac-trans-(1,2)-1-(4-chloro-2-methoxyphenoxy)-1,2,3,4-tetrahydronaphthalen-2-yl]piperidin-3-ylamine], the inhibition at 10 µM lay in the range of 20 to 50%.

Consider `CC(C)(C)N[C@H]1Cc2ccccc2[C@@H]1Oc1ccc(S(C)(=O)=O)cc1` (racemic) [Example 701, tert-butyl-[1-(4-methanesulfonylphenoxy)indan-2-yl]amine], for which the IC50 lay in the range of 1 to 10 µM.

Regarding `CC(=O)Nc1cccc(O[C@@H]2c3cc(Cl)cc(F)c3C[C@H]2N2CCC[C@@H](N)C2)c1` (racemic) [Example 678, N-{3-[rac-trans-(1,2)-2-((R)-3-aminopiperidin-1-yl)-6-chloro-4-fluoroindan-1-yloxy]phenyl}acetamide], the IC50 was less than 1 µM.

In the case of `N[C@H]1CCCN([C@H]2CCc3ccccc3[C@@H]2Oc2ccc3cc[nH]c3c2)C1` (racemic) [Example 148, (S)-1-[rac-trans-(1,2)-1-(1H-indol-6-yloxy)-1,2,3,4-tetrahydronaphthalen-2-yl]piperidin-3-ylamine], the inhibition at 10 µM was in the range of 20 to 50%.

For `Cc1ccc(O[C@H]2c3ccccc3CC[C@@H]2N2CCC[C@@H](N)C2)c(Br)c1` (racemic) [Example 35, (R)-1-[rac-trans-(1,2)-1-(2-bromo-4-methylphenoxy)-1,2,3,4-tetrahydronaphthalen-2-yl]piperidin-3-ylamine], the inhibition at 10 µM was in the range of 20 to 50%.

Regarding `Cc1nnc(C2CC2)n1-c1ccc(O[C@H]2c3ccccc3C[C@@H]2N2CCCC2)cc1` (racemic) [Example 448, 3-Cyclopropyl-5-methyl-4-[4-(rac-trans-(1,2)-2-pyrrolidin-1-ylindan-1-yloxy)phenyl]-4H-[1,2,4]triazole], the IC50 was less than 1 µM.
